Reference: US5543517A, “Substituted bicyclic phosphoramides and derivatives thereof” (The DuPont Merck Pharmaceutical Company, priority 1994, dated 1996)
Converted amounts (≈) assume the structure as drawn. Where two headings read alike, the source gives them in different places.

Tests used:
[1] = tested on: HIV-1 (RF); assay: HIV RNA assay (microplate based compound evaluation in HIV-1 infected MT-2 cells); assay type: cell-based
Experimental: DNA Plasmids and In Vitro RNA Transcripts
Plasmid pDAB 72 containing both gag and pol sequences of BH10 (bp 113-1816) cloned into PTZ 19R was prepared according to Erickson-Viitanen et al. AIDS Research and Human Retroviruses 1989, 5, 577. The plasmid was linearized with Bam HI prior to the generation of in vitro RNA transcripts using the Riboprobe Gemini system II kit (Promega) with T7 RNA polymerase. Synthesized RNA was purified by treatment with RNase free DNAse (Promega), phenol-chloroform extraction, and ethanol precipitation. RNA transcripts were dissolved in water, and stored at -70° C. The concentration of RNA was determined from the A260.
Biotinylated capture probes were purified by HPLC after synthesis on an Applied Biosystems (Foster City, Calif.) DNA synthesizer by addition of biotin to the 5' terminal end of the oligonucleotide, using the biotinphosphoramidite reagent of Cocuzza, Tet. Lett. 1989, 30, 6287. The gag biotinylated capture probe (5-biotin-[…] 3') was complementary to nucleotides 889-912 of HXB2 and the pol biotinylated capture probe (5'-biotin --[…] 3') was complementary to nucleotides 2374-2395 of HXB2. Alkaline phosphatase conjugated oligonucleotides used as reporter probes were prepared by Syngene (San Diego, Calif.). The pol reporter probe (5' […] 3') was complementary to nucleotides 2403-2425 of HXB2. The gag reporter probe (5' […] 3') was complementary to nucleotides 950-973 of HXB2. All nucleotide positions are those of the GenBank Genetic Sequence Data Bank as accessed through the Genetics Computer Group Sequence Analysis Software Package (Devereau Nucleic Acids Research 1984, 12, 387). The reporter probes were prepared as 0.5 μM stocks in 2×SSC(0.3M NaCl, 0.03M sodium citrate), 0.05M Tris pH 8.8, 1 mg/mL BSA. The biotinylated capture probes were prepared as 100 μM stocks in water.
Streptavidin Coated Plates
Nunc-immunomodule microtiter plate strips were coated by addition of 200 μL of streptavidin (30 μg/mL, Scripps, La Jolla, Calif.) in freshly prepared 10 mM sodium carbonate (pH 9.6). Plates were incubated overnight at 4° C. Streptavidin solution was aspirated from the wells and a blocking buffer composed of phosphate buffered saline (PBS), 20 mg/mL bovine serum albumin (crystalline, nuclease and protease free, Calbiochem) and 100 mg/mL lactose (Sigma) was added to the plates for 3 hrs at room temperature. Blocking buffer was removed from the wells, which were allowed to dry overnight at room temperature and subsequently stored at 4° C. in zip lock bags with desiccant. For the majority of the compound evaluation experiments, streptavidin coated plates were obtained from Du Pont Biotechnology Systems (Boston, Mass.).
MT-2, CEM, and H9 cells were maintained in RPMI 1640 supplemented with 5% fetal calf serum (FCS), 2 mM L-glutamine and 50 μg/mL gentamycin, all from Gibco. Laboratory strains of HIV-1 (RF, MN and IIIB) were propagated in H9 cells in the same medium. Virus stocks were prepared approximately 1 month after acute infection of H9 cells by clarification of the tissue culture medium and storage of aliquots at -70° C. Infectious titers of HIV-1 (RF) stocks were 1-3×10^7 PFU (plaque forming units)/mL as measured by plaque assay on MT-2 cells (see below). Each aliquot of virus stock used for infection was thawed only once. In some cases, infected H9 cells were shifted to Dulbecco's modified Eagle's medium 3-10 days before collection of virus in order to generate virus stocks in medium with low biotin content. Clinical isolates of HIV that had been passaged once in MT-2 cells were used to infect fresh MT-2 cells in RPMI medium. Three days after infection, cells were pelleted, resuspended and culture continued in Dulbecco's modified Eagle's medium as above. Virus stocks of clinical isolates were prepared 10-15 days after infection when cytopathic effects were apparent in the culture. […]

[2] = molecular target: T1, HIV-1 protease (HIV-1 M:B_HXB2R, UniProt P04585); assay: HIV protease inhibition assay (HPLC method); assay type: biochemical; details: pH 5.5, 30° C., 1 hr
T1 construct: cut from Gag-Pol polyprotein
Experimental: The Ki values in TABLE 1 were determined using the assay conditions described below under HIV Protease Inhibition Assay (HPLC Method). The Ki values are indicated as follows: +++=<10 nM; ++=10 nM to 1 μM; +=>[…].
HIV PROTEASE INHIBITION ASSAY (HPLC METHOD)
Protease: Inclusion bodies of E. coli harboring plasmid T1718R with a synthetic gene coding for a single-chain tethered dimer of HIV protease were prepared as described in Cheng et al. Proc. Natl. Acad. Sci. USA 1990, 87, 9660. Active protease was prepared as described therein by extraction with 67% acetic acid, dilution 33-fold with water, dialysis against water and then against a "refolding buffer" comprising 20 mM MES, 1 mM dithiothreitol and 10% glycerol, pH 5.5. Protease was stored as a stock preparation at 10 uM in refolding buffer.
Substrate: Peptide of the sequence aminobenzoyl-Ala-Thr-His-Gln-Val-Tyr-Phe(NO2)-Val-Arg-Lys-Ala containing p-nitrophenylalanine (Phe(NO2)), was prepared by solid phase synthesis as previously described (Cheng et al. Proc. Natl. Acad. Sci. USA 1990, 87, 9660). Stock solutions of 2 mM substrate were prepared in DMSO.
Inhibitory compounds were dissolved in sufficient DMSO to make 3 mM stock solutions. All further dilutions were prepared in "assay buffer" comprising 1M NaCl, 50 mM MES, pH 5.5, 1 mM EDTA, 1 mM DTT and 20% glycerol.
Enzyme reaction: To a 2 mL screw-cap centrifuge tube were added 50 uL protease (final concentration 0.25 nM) and 0.1 mL inhibitor compound (final concentration 0.1-12,500 nM). After 15 min preincubation at room temperature, the reaction was started by the addition of 0.05 mL substrate (final concentration 5 uM). Incubation was carried out at 30° C. for 1 hr. The reaction was stopped by addition of 1 mL of 0.1M ammonium hydroxide solution.
HPLC measurement of product formation: The product (aminobenzoyl-Ala-Thr-His-Gln-Val-Tyr) was separated from substrate on a Pharmacia MonoQ anion exchange column. The injection volume was 0.2 mL. The mobile phases comprised: solution A (20 mM tris HCl, pH 9.0, 0.02% sodium azide, 10% acetonitrile), and solution B (20 mM tris HCl, pH 9.0, 0.02% sodium azide, 0.5M ammonium formate, 10% acetonitrile). The mobile phases were pumped at 1 mL/min, with a gradient from 0 to 30% B in 5 min, 100% B for 4 min to wash the column, and a re-equilibration wash with A for 4 min. The retention time of the product was 3.6 min. Detection with a Shimadzu model RF535 fluorescence monitor was at 330 nm (excitation) and 430 nm (emission). The Ki was calculated from the formula Ki=I/(((Km+S-FA*S)/(FA*Km))-1) where I=inhibitor concentration, S=substrate concentration, FA=fractional activity=cm peak height with inhibitor/cm peak height without inhibitor and Km=Michaelis constant=20 uM.

[3] = tested on: HIV (3B) or HIV (RF); assay: HIV yield reduction cell assay (plaque assay, MT-2 cells); assay type: cell-based; details: Human immunodeficiency virus 1, MT2, 72 h, 3 days
Experimental: HIV YIELD REDUCTION CELL ASSAY
The following procedure is additionally described in Smallheer et al. Antiviral Chemistry and Chemotherapy 1993, 4(1), 27.
MT-2, a human T-cell line, was cultured in RPMI medium supplemented with 5% (v/v) heat inactivated fetal calf serum (FCS), 2 mM L-glutamine and 50 μg/mL gentamycin (later two compounds available from Gibco) Human immunodeficiency virus strains, HIV (3B) and HIV (RF) were propagated in H-9 cells in RPMI with 5% FCS. Poly-L-lysine (Sigma) coated cell culture plates were prepared according to the method of Harada et al. Science 1985, 229 563. MTT, (3-(4,5-dimethyl-thiazol-2-yl)-2,5-diphenyltetrazolium bromide), was obtained from Sigma.
Method: Test compounds were dissolved in dimethylsulfoxide to 5 mg/mL and serially diluted into RPMI medium to ten times the desired final concentration. […]
The virus titers of the progeny virus produced in the presence or absence of test compounds were determined by plaque assay. […] Clear plaques on a purple background were counted and the number of plaque forming units of virus was calculated for each sample. The antiviral activity of test compounds was determined by the percent reduction in the virus titer with respect to virus grown in the absence of inhibitor. The IC90 values in TABLE 2 were determined using the assay conditions described above under HIV Yield Reduction Assay. […]

[4] = Human immunodeficiency virus 1, MT2, 72 h, HIV RNA assay, HIV-1 (RF) infected MT-2 cells, 3 days, 37° C., read-out: IC90

IC90 ([1]; Human immunodeficiency virus 1, MT2, HIV-1 (RF), MT-2 cells, virus dilution selected to give this value, read-out: IC90 value (concentration of compound required to reduce the HIV RNA level by 90%)) [µg/mL]	Structure (SMILES)	IC90 [1, 4] [µg/mL]	Ki [2] [nM]	IC90 [3] [µg/mL]
–	O=P12O[C@H]([C@@H](O)[C@@H](Cc3ccccc3)N1CC1CC1)[C@@H](Cc1ccccc1)N2CC1CC1 [Example 1F, (3-endo,4-endo,6-exo)-2,7-Bis(cyclopropylmethyl)-3,6-bis(phenylmethyl)-8-oxa-2,7-diaza-1-phosphabicyclo [3.2.1]octan-4-ol 1-oxide]	10 to 100 (≈ 22.1 to 221 µM)	10 to 1000	–
–	O=P12O[C@H]([C@@H](O)[C@@H](Cc3ccccc3)N1Cc1ccc3ccccc3c1)[C@@H](Cc1ccccc1)N2Cc1ccc2ccccc2c1 [Example 2C, (3-endo,4-endo,6-exo)-2,7-Bis(2-naphthalenylmethyl)-3,6-bis(phenylmethyl)-8-oxa-2,7-diaza-1-phosphabicyclo[3.2.1]octan-4-ol 1-oxide]	> 50	10 to 1000	–
–	CCCCN1[C@H](Cc2ccccc2)[C@H](O)[C@H]2OP1(=O)N(CCCC)[C@@H]2Cc1ccccc1 [Example 3C, (3-endo,4-endo,6-exo)-2,7-Bis(butyl)-3,6-bis(phenylmethyl)-8-oxa-2,7-diaza-1-phosphabicyclo[3.2.1]octan-4-ol 1-oxide]	> 50	10 to 1000	–
–	O=P12O[C@H]([C@@H](O)[C@@H](Cc3ccccc3)N1Cc1ccccc1)[C@@H](Cc1ccccc1)N2Cc1ccccc1 [Example 4E, (3-endo,4-endo,6-exo)-2,3,6,7-tetrakis (phenylmethyl)-8-oxa-2,7-diaza-1-phosphabicyclo[3.2.1]octan-4-ol 1-oxide]	10 to 100 (≈ 19.1 to 191 µM)	10 to 1000	–
–	O=P12O[C@H]([C@@H](O)[C@@H](Cc3ccccc3)N1Cc1ccc(CO)cc1)[C@@H](Cc1ccccc1)N2Cc1ccc(CO)cc1 [Example 5C, (3-endo,4-endo,6-exo)-2,7-Bis(4-(hydroxymethyl)phenylmethyl)-3,6-bis(phenylmethyl)-8-oxa-2,7-diaza-1-phosphabicyclo[3.2.1]octan-4-ol 1-oxide]	< 10	< 10	< 10
–	CNc1cccc(CN2[C@H](Cc3ccccc3)[C@H](O)[C@H]3OP2(=O)N(Cc2cccc(NC)c2)[C@@H]3Cc2ccccc2)c1 [Example 6D]	< 10	10 to 1000	–
–	O=P12O[C@H]([C@@H](O)[C@@H](Cc3ccccc3)N1Cc1ccc(O)cc1)[C@@H](Cc1ccccc1)N2Cc1ccc(O)cc1 [Example 7D, (3-endo,4-endo,6-exo)-2,7-bis(4-hydroxyphenylmethyl)-3,6-bis(phenylmethyl)-8-oxa-2,7-diaza-1-phosphabicyclo[3.2.1]octan-4-ol 1-oxide]	< 10	< 10	–
–	O=P12O[C@H]([C@@H](O)[C@@H](Cc3ccccc3)N1Cc1cccc(CO)c1)[C@@H](Cc1ccccc1)N2Cc1cccc(CO)c1 [Example 8C, (3-endo,4-endo,6-exo)-2,7-Bis(3-(hydroxymethyl)phenylmethyl)-3,6-bis(phenylmethyl)-8-oxa-2,7-diaza-1-phosphabicyclo[3.2.1]octan-4-ol 1-oxide]	< 10	< 10	–
0.2 (≈ 0.947 µM)	Nc1ccn([C@H]2CC[C@@H](CO)O2)c(=O)n1 [ddC, dideoxycytidine, reference compound]	–	–	–
